Laboratory results: ChEMBL document CHEMBL1147421, “Diamine derivatives with antiparasitic activities” (Bioorg Med Chem Lett, 2004)
pEC50: −log10 of the molar value. Where “and” joins values, the source holds several entries; their conditions need not be identical. Equal values may be shown once.

Legend:
Plasmodium falciparum [1] = assay: Antiparasitic activity against Plasmodium falciparum D6; assay type: functional, organism-based
Plasmodium falciparum [2] = assay: Antiparasitic activity against chloroquine-resistant Plasmodium falciparum W2; assay type: functional, organism-based
[3] = Antiparasitic activity against Leishmania promastigotes (Leishmania donovani); assay type: functional

Row | SMILES | EC50 (Plasmodium falciparum [1]) | pEC50 (Plasmodium falciparum [2]; Plasmodium falciparum) | pEC50 [3] | pEC50 (Plasmodium falciparum [1]; Plasmodium falciparum) | pEC50 (Plasmodium falciparum [2]) | pEC50 (Plasmodium falciparum [1]) | EC50 (Plasmodium falciparum [2])
1 | NCCCN(Cc1ccccc1)Cc1ccc(Cl)cc1.O=C(O)C(F)(F)F | Not Active | 5.11 | 5.73 |  |  |  | 
2 | NCCCCN(Cc1ccccc1)Cc1ccc(OCc2ccccc2)cc1 |  | 5.11 | 6.43 | 5.24 |  |  | 
3 | NCCCCN(Cc1ccc(OCc2ccc(Cl)c(Cl)c2)cc1)Cc1ccc(OCc2ccc(Cl)c(Cl)c2)cc1 |  |  | 5.42 and 5.44 | 5.94 | 5.59 and 6.16 |  | 
4 | Cc1ccc(COc2ccc(CN(CCCN)Cc3ccc(OCc4ccc(C)cc4)cc3)cc2)cc1 |  | 5.44 | 5.92 and 5.97 | 5.85 | 5.34 | 5.85 | 
5 | NCCCN(Cc1ccc(OCc2ccc(Br)cc2)cc1)Cc1ccc(OCc2ccc(Br)cc2)cc1 |  | 5.61 | 6.04 and 6.06 | 5.94 | 5.65 | 5.91 | 
6 | NCCCCN(Cc1ccc(OCc2ccccc2)c(OCc2ccccc2)c1)Cc1ccc(OCc2ccccc2)c(OCc2ccccc2)c1 |  | 5.65 | 5.73 | 5.46 |  |  | 
7 | COc1ccc(CN(CCCCN)Cc2ccccc2)cc1.O=C(O)C(F)(F)F | Not Active | 5.65 | 5.84 |  |  |  | 
8 | NCCCCN(Cc1ccc(OCc2ccccc2)cc1)Cc1ccc(OCc2ccccc2)cc1 |  | 5.31 | 5.73 | 5.49 |  |  | 
9 | COc1ccc(CN(CCCN)Cc2ccccc2)cc1.O=C(O)C(F)(F)F | Not Active |  | 5.34 |  |  |  | Not Active
10 | NCCCCN(Cc1ccccc1)Cc1ccccc1.O=C(O)C(F)(F)F | Not Active |  | 4.58 |  |  |  | Not Active
11 | COc1cccc(CN(CCCN)Cc2cccc(OC)c2)c1.O=C(O)C(F)(F)F | Not Active |  | 4.90 |  |  |  | Not Active
12 | NCCCN(Cc1ccc(-c2ccc(Br)cc2)o1)Cc1ccc(-c2ccc(Br)cc2)o1.O=C(O)C(F)(F)F |  |  | 5.07 | 5.25 |  |  | Not Active
13 | CC(C)c1ccc(CN(CCCN)Cc2ccc(C(C)C)cc2)cc1.O=C(O)C(F)(F)F | Not Active | 5.02 | 5.58 |  |  |  | 
14 | C[C@@H]1[C@H](O)[C@@H](C)/C=C/C=C/CC/C=C/C=C/C=C/C=C/[C@H](O[C@@H]2O[C@H](C)[C@@H](O)[C@H](N)[C@@H]2O)C[C@@H]2O[C@](O)(C[C@@H](O)C[C@@H](O)[C@H](O)CC[C@@H](O)C[C@@H](O)CC(=O)O[C@H]1C)C[C@H](O)[C@H]2C(=O)O |  |  | 8.00 |  |  |  | 
15 | COc1ccc(CN(CCCN)Cc2ccccc2)cc1OC.O=C(O)C(F)(F)F | Not Active | 5.25 | 5.40 |  |  |  | 
16 | NCCCN(Cc1ccc(OCCCc2ccccc2)cc1)Cc1ccc(OCCCc2ccccc2)cc1 |  | 5.27 | 6.03 and 6.00 | 5.73 | 5.46 | 5.70 | 
17 | NCCCN(Cc1ccccc1)Cc1ccccc1.O=C(O)C(F)(F)F | Not Active |  | 4.62 |  |  |  | Not Active
18 | NCCCN(Cc1ccc(OCCc2ccccc2)cc1)Cc1ccc(OCCc2ccccc2)cc1.O=C(O)C(F)(F)F |  |  | 4.85 and 4.95 | 5.37 |  | 5.16 | Not Active
19 | CC(C)(C)c1ccc(COc2ccc(CN(CCCN)Cc3ccc(OCc4ccc(C(C)(C)C)cc4)cc3)cc2)cc1 |  | 5.41 | 5.67 and 5.86 | 5.60 | 5.39 | 5.69 | 
20 | NCCCN(Cc1ccc(OCc2ccccc2)c(OCc2ccccc2)c1)Cc1ccc(OCc2ccccc2)c(OCc2ccccc2)c1 |  | 5.52 | 5.79 | 5.54 |  |  | 
21 | CC1=C2[C@H]3OC(=O)[C@@H](C)[C@@H]3[C@@H](O)C[C@@]2(C)C=CC1=O |  | 7.70 |  | 7.70 |  |  | 
22 | CCN(CC)CCCC(C)Nc1ccnc2cc(Cl)ccc12 (configuration not stated) [CHLOROQUINE] |  | 6.51 |  | 7.85 |  |  | 
23 | N=C(N)c1ccc(OCCCCCOc2ccc(C(=N)N)cc2)cc1 [PENTAMIDINE] |  |  | 5.87 |  |  |  | 
